Test results from publication PMC10108740 (Journal of Medicinal Chemistry, 2023).
Like-named read-outs stand apart in the source and are kept apart here.

Assays:
[1] = tested on: SARS-CoV-2 WA1 (USA-WA1/2020); test: Antiviral immunofluorescence assay, SARS-CoV-2 WA1 in Calu-3 cells; format: cell-based; conditions: for EC50 / EC90: immunofluorescence, 44 hpi, mean ± SD
SARS-CoV-2 (WA-1) [2] = test: Antiviral immunofluorescence assay, SARS-CoV-2 WA1 in Huh7.5 cells; format: cell-based; conditions: WA-1, Huh7.5 cells, immunofluorescence, 48 hpi; for EC50: read-out: EC50; for EC90: read-out: EC90
SARS-CoV-2 (WA-1) [3] = test: Antiviral immunofluorescence assay, SARS-CoV-2 WA1 in Vero-TMPRSS2 cells; format: cell-based
SARS-CoV-2 (WA-1) [4] = test: Antiviral immunofluorescence assay, SARS-CoV-2 WA1 in human pluripotent stem cell-derived lung cells; format: cell-based; conditions: 24 hpi
in vitro [5] = conditions: human
in vitro [6] = conditions: human; remark: listed apart in the source
in vitro [7] = conditions: chlorocebus aethiops
Procedure: (§1) Cells were seeded as per SARS-CoV-2 infection studies in opaque walled 96-well cell culture plates and incubated overnight for Huh7.5 and Vero-TMPRSS2 cells and for an additional 24h for Calu-3 cells. Compounds or controls were added at the indicated concentrations. Cells were incubated for 48h for Huh7.5 cells, 40–44h for Calu-3 cells, or 30–32h for Vero-TMPRSS2 cells at 37 °C and 5% CO2, an equal volume of CellTiter-Glo reagent (Cat. #G7570, Promega) or CellTiter-Glo 2.0 reagent (Cat. #G9241, Promega) was added and mixed, and luminescence was recorded on a Veritas Microplate Luminometer (Turner BioSystems) according to manufacturer recommendations. Percent viability was calculated compared to DMSO controls, and CC50 values were calculated using Prism 9.
(§2) Calu-3 cells were treated for 44h (A), Huh7.5 cells were treated for 48h (B), and Vero-
(§3) TMPRSS2 cells were treated for 38h (C) as in infection assays for each cell type. Cell viability
(§4) was measured by CellTiter-Glo assay and reported as % cell viability relative to DMSO controls.
(§5) Best fit curves calculated in Graphpad Prism 9 were used
(§6) to compute cytotoxic concentration 50% (CC50) values in Tables 1-3.

in vitro [8] = conditions: human; remark: listed apart in the source
Calu-3 cells [9] = test: Cell viability assay (CellTiter-Glo), Calu-3 cells; conditions: uninfected Calu-3 cells, 44h
Huh7.5 cells = test: Cell viability assay (CellTiter-Glo), Huh7.5 cells; conditions: uninfected Huh7.5 cells, 48h
Vero-TMPRSS2 cells = test: Cell viability assay (CellTiter-Glo), Vero-TMPRSS2 cells; conditions: uninfected Vero-TMPRSS2 cells, 38h
Procedure: as §1, §2, §3, §4, §5, §6

[10] = tested on: human pluripotent stem cell-derived lung cells; test: Cytotoxicity by relative number of nuclei, human pluripotent stem cell-derived lung cells; conditions: PSC-lung cells, relative number of nuclei (IF) vs vehicle-treated wells
[11] = tested on: SARS-CoV-2 B.1.1.7 (Alpha); test: microbe, parasite or virus in culture; format: cell-based; conditions: Severe acute respiratory syndrome coronavirus 2, Calu-3
[12] = tested on: SARS-CoV-2 B.1.351 (Beta); test: microbe, parasite or virus in culture; format: cell-based; conditions: Severe acute respiratory syndrome coronavirus 2, Calu-3
SARS-CoV-2 P.1 (Gamma) = test: microbe, parasite or virus in culture; format: cell-based; conditions: Severe acute respiratory syndrome coronavirus 2, Calu-3
[13] = tested on: SARS-CoV-2 B.1.617.2 (Delta); test: microbe, parasite or virus in culture; format: cell-based; conditions: Severe acute respiratory syndrome coronavirus 2, Calu-3
[14] = tested on: SARS-CoV-2 BA.1 (Omicron); test: microbe, parasite or virus in culture; format: cell-based; conditions: Severe acute respiratory syndrome coronavirus 2, Calu-3
Calu-3 cells [15] = conditions: human, 44 h
SARS-CoV-2 (WA-1) [16] = tested on: SARS-CoV-2 (WA-1); parameters: method as in PMID 34310217; conditions: Huh7.5 cells; read-out: EC50, inhibition of SARS-CoV-2 replication; cited from earlier work
[17] = hamster, in vivo; cited from earlier work
Calu-3 cells [18] = conditions: cited from earlier work
[19] = tested on: SARS-CoV-2 WA1 (USA-WA1/2020); parameters: method as in Schooley et al.[24]; conditions: Calu-3 cells, ref Schooley et al.[24]; cited from earlier work
[20] = Severe acute respiratory syndrome coronavirus 2, Calu-3, WA1, Calu-3 cells, read-out: EC50
[21] = Severe acute respiratory syndrome coronavirus 2, WA1, Calu-3 cells
[22] = Severe acute respiratory syndrome coronavirus 2
[23] = Severe acute respiratory syndrome coronavirus 2, Vero/TMPRSS2
[24] = Severe acute respiratory syndrome coronavirus 2, WA-1, Vero-TMPRSS2 cells, immunofluorescence, 38 hpi
[25] = Severe acute respiratory syndrome coronavirus 2, WA-1, PSC-lung cells (ALDA 31616 and H9)
[26] = WA1, Calu-3 cells, read-out: EC50
[27] = WA-1, Vero-TMPRSS2 cells, immunofluorescence, 38 hpi
[28] = WA-1, Vero-TMPRSS2 cells, immunofluorescence, 38 hpi, read-out: EC50
[29] = WA-1, PSC-lung cells (ALDA 31616 and H9)

| Molecule | EC50 [1, 20] [nM] | EC90 [1, 21] [nM] | EC50 (SARS-CoV-2 (WA-1) [2]; [22]) [nM] | EC90 (SARS-CoV-2 (WA-1) [2]; [22]) [nM] | EC50 (SARS-CoV-2 (WA-1) [3]; [23]) [nM] | EC90 (SARS-CoV-2 (WA-1) [3]; [24]) [nM] | EC50 (SARS-CoV-2 (WA-1) [4]; [25]) [nM] | EC90 (SARS-CoV-2 (WA-1) [4]; [25]) [nM] | CC50 at 44 h (in vitro [5]) [nM] | CC50 at 48 h (in vitro [6]) [nM] | CC50 (in vitro [7]) [nM] | CC50 at 24 h (in vitro [8]) [nM] | EC50 [1, 26] [nM] | also measured |
| --- | --- | --- | --- | --- | --- | --- | --- | --- | --- | --- | --- | --- | --- | --- |
| CCCCCCCCCCCCCCCCOC[C@H](COP(=O)(O)OC[C@H]1O[C@@](C#N)(c2ccc3c(N)ncnn23)[C@H](O)[C@@H]1O)OCc1ccc(OC)c(F)c1 [Compound 11g, ((2R,3S,4R,5R)-5-(4-Aminopyrrolo[2,1-f][1,2,4]triazin-7-yl)-5-cyano-3,4-dihydroxytetrahydrofuran-2-yl)methyl ((R)-2-((3-fluoro-4-methoxybenzyl)oxy)-3-(hexadecyloxy)propyl) hydrogen phosphate] | 51 ± 18 | 240 ± 131 | 50 ± 22 | 103 ± 47 | 406 ± 87 | 858 ± 249 | 130 ± 56 | 267 ± 19 | 75700 | 59000 | > 100000 | > 20000 |  |  |
| ((2R,3S,4R,5R)-5-(4-Aminopyrrolo[2,1-f][1,2,4]triazin-7-yl)-5-cyano-3,4-dihydroxytetrahydrofuran-2-yl)methyl ((R)-2-((3-fluoro-4-methoxybenzyl)oxy)-7-(tetradec-5-en-1-yloxy)heptyl) hydrogen phosphate [Compound 10g] |  |  |  |  |  |  |  |  |  |  |  |  | 70 ± 3 | fold better potency ([1]; 3-fluoro-4-methoxybenzyl at sn-2 versus unsubstituted benzyl): 2–3 fold; fold more active than RDV ([1]; Calu-3 cells, based on EC50): 3.3 fold; EC90 ([1]; WA1, Calu-3 cells): 149 ± 117 nM; EC50 (SARS-CoV-2 (WA-1) [2]): 54 ± 16 nM; EC90 (SARS-CoV-2 (WA-1) [2]): 95 ± 27 nM; EC90 (SARS-CoV-2 (WA-1) [3]; [27]): 554 ± 54 nM; EC50 (SARS-CoV-2 (WA-1) [3]; [28]): 300 ± 38 nM; EC50 (SARS-CoV-2 (WA-1) [4]; [29]): 82 ± 13 nM; EC90 (SARS-CoV-2 (WA-1) [4]; [29]): 175 ± 16 nM; CC50 (Calu-3 cells [9]): 58700 nM; CC50 (Huh7.5 cells): > 100000 nM; CC50 (Vero-TMPRSS2 cells): > 100000 nM; CC50 [10]: > 20000 nM |
| CCCCCCCCCCCCCCCCCCOC[C@H](COP(=O)(O)OC[C@H]1O[C@@](C#N)(c2ccc3c(N)ncnn23)[C@H](O)[C@@H]1O)OCc1ccccc1 [Compound V2043, 1-O-octadecyl-2-O-benzyl-sn-glyceryl-phospho-RVn] |  | 323 ± 157 | 140 ± 63 | 424 ± 267 | 216 ± 38 | 403 ± 128 | 382 ± 205 | 736 ± 267 | 58300 |  |  | > 20000 | 136 ± 56 | EC50 ([1]; Severe acute respiratory syndrome coronavirus 2, Calu-3, WA1, Calu-3 cells): 138 nM; EC50 [11]: 146 ± 95 nM; EC90 [11]: 517 ± 169 nM; EC50 [12]: 146 ± 104 nM; EC90 [12]: 645 ± 459 nM; EC50 (SARS-CoV-2 P.1 (Gamma)): 167 ± 84 nM; EC90 (SARS-CoV-2 P.1 (Gamma)): 362 ± 42 nM; EC50 [13]: 85 ± 24 nM; EC90 [13]: 484 ± 457 nM; EC50 [14]: 44 ± 12 nM; EC90 [14]: 359 ± 447 nM; CC50 (Calu-3 cells [15]): 58300 nM; EC50 (SARS-CoV-2 (WA-1) [16]): 138 nM; CC50 at 38 h (in vitro [7]): 97900 nM; oral bioavailability [17]: orally bioavailable |
| N#C[C@@]1(c2ccc3c(N)ncnn23)O[C@H](CO)[C@@H](O)[C@H]1O [RVn, GS-441524] |  |  |  |  |  |  |  |  |  |  |  |  |  | CC50 (Calu-3 cells [18]): > 100000 nM |
| CCCCCCCCCCCCCCCCOC[C@H](COP(=O)(O)OC[C@H]1O[C@@](C#N)(c2ccc3c(N)ncnn23)[C@H](O)[C@@H]1O)OCc1ccccc1 [Compound 11a, ((2R,3S,4R,5R)-5-(4-Aminopyrrolo[2,1-f][1,2,4]triazin-7-yl)-5-cyano-3,4-dihydroxytetrahydrofuran-2-yl)methyl ((R)-2-(benzyloxy)-3-(hexadecyloxy)propyl) hydrogen phosphate] | 95 ± 12 | 716 ± 270 | 131 ± 66 | 268 ± 221 | 402 ± 84 | 798 ± 154 |  |  | 88700 | > 100000 | > 100000 |  |  |  |
| ((2R,3S,4R,5R)-5-(4-Aminopyrrolo[2,1-f][1,2,4]triazin-7-yl)-5-cyano-3,4-dihydroxytetrahydrofuran-2-yl)methyl ((R)-2-(benzyloxy)-7-(tetradec-5-en-1-yloxy)heptyl) hydrogen phosphate [Compound 10a] |  |  |  |  |  |  |  |  |  |  |  |  | 193 ± 58 | EC90 ([1]; WA1, Calu-3 cells): 324 ± 127 nM; EC50 (SARS-CoV-2 (WA-1) [2]): 109 ± 55 nM; EC90 (SARS-CoV-2 (WA-1) [2]): 224 ± 100 nM; EC90 (SARS-CoV-2 (WA-1) [3]; [27]): 570 ± 54 nM; EC50 (SARS-CoV-2 (WA-1) [3]; [28]): 293 ± 20 nM; EC50 (SARS-CoV-2 (WA-1) [4]; [29]): 267 ± 118 nM; EC90 (SARS-CoV-2 (WA-1) [4]; [29]): 555 ± 250 nM; CC50 (Calu-3 cells [9]): 79200 nM; CC50 (Huh7.5 cells): > 100000 nM; CC50 (Vero-TMPRSS2 cells): > 100000 nM; CC50 [10]: > 20000 nM |
| CCC(CC)COC(=O)[C@H](C)N[P@](=O)(OC[C@H]1O[C@@](C#N)(c2ccc3c(N)ncnn23)[C@H](O)[C@@H]1O)Oc1ccccc1 [RDV, remdesivir] |  |  |  |  |  |  |  |  |  |  |  |  |  | EC50 [19]: 230 nM; EC90 [19]: 310 nM; CC50 (Calu-3 cells [18]; Calu-3 cells, ref Schooley et al.[24]): > 100000 nM |
| CCCCCCCCCCCCCCCCCCOC[C@H](COP(=O)(O)OC[C@H]1O[C@@](C#N)(c2ccc3c(N)ncnn23)[C@H](O)[C@@H]1O)OCc1ccc(OC)c(F)c1 [Compound 9g, ((2R,3S,4R,5R)-5-(4-Aminopyrrolo[2,1-f][1,2,4]triazin-7-yl)-5-cyano-3,4-dihydroxytetrahydrofuran-2-yl)methyl ((R)-2-((3-fluoro-4-methoxybenzyl)oxy)-3-(octadecyloxy)propyl) hydrogen phosphate] | 77 ± 27 | 145 ± 54 | 60 ± 37 | 212 ± 86 | 178 ± 57 | 294 ± 62 | 167 ± 55 | 348 ± 121 | 50500 | 70100 | > 100000 | > 20000 |  |  |
